Source: PMC6328046 (Gastroenterology, 2018)

Biological target: HDAC2 (Homo sapiens, UniProt Q92769)
Assay: surface plasmon resonance with recombinant HDAC2
Assay type: binding

HDAC2, sequence (Q92769 whole entry): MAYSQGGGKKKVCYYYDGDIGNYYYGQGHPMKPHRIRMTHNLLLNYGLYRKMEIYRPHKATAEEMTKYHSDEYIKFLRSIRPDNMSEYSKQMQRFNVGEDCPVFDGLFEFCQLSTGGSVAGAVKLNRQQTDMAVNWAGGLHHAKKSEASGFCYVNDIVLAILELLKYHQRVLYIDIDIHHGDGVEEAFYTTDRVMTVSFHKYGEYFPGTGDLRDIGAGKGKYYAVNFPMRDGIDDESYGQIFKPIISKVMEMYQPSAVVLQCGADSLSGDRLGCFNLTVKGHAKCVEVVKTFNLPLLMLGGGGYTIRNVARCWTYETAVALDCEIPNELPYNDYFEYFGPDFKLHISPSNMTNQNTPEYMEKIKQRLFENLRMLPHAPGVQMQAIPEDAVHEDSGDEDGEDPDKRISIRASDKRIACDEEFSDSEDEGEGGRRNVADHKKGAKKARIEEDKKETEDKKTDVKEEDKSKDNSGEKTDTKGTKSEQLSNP

- Kd: 12.8 µM
Compound: COc1ccc(Nc2nnc(-c3ccc(C(=O)NO)cc3)o2)cc1 [metavert]
